Read-outs that look alike come from different tables or passages of the source. Marks after values point to notes of the source that are not given here.
What was measured:
[1] = target: T1, rabbit gastric H+, K+-ATPase (Oryctolagus cuniculus, UniProt P27112); assay: In vitro enzymatic activity assay (inorganic phosphate from ATP hydrolysis); format: biochemical
T1 construct: using rabbit gastric H^+, K^+-ATPase; from tissue; host or cells: rabbit stomach (gastric preparation; the method of preparation is not described)
Protocol: The in vitro enzymatic activity was calculated by measuring the inorganic phosphate produced by the hydrolysis of ATP using rabbit gastric H^+, K^+-ATPase. 0.25 μg enzyme was preincubated at 37°C for 30 min in Tris-HCl buffer (2.0 mL, 50 mM, pH 6.5) containing 5 mM MgCl2, 10 μM valinomycin, 0 or 20 mM KCl, and different concentrations of SH-337 and vonoprazan. The reaction was initiated by adding 5 μL of 5 mM ATP 2Na, and the preparation was incubated for 30 min at 37°C and halted by the addition of 100 μL of malachite green reagent (0.12% malachite green, 7.5% ammonium molybdate, and 11% tween 20 were mixed in a volume ratio of 100 : 25 : 2). H^+, K^+-ATPase activity was calculated after subtracting the enzyme activity in the absence of KCl.

Na+, K+-ATPase = assay: In vitro Na+, K+-ATPase activity; format: biochemical
Rat microsomal stability = format: in vitro ADME; settings: rat, rat liver microsomes; read-out: Metabolic stability (t1/2) rat
Protocol: (§1) The in vitro metabolic stabilities of selected compounds were performed using human and rat liver microsomes in triplicate as described previously.

[2] = Human microsomal stability; format: in vitro ADME; settings: human, human liver microsomes; read-out: Metabolic stability (t1/2) human
Protocol: as §1

[3] = Tissue distribution of vonoprazan and its metabolites in rats (previous studies); format: in vivo, rat; settings: 1 h after oral 2.0 mg/kg, calculated from data of a previous study, ref [40]
[4] = system: histamine-stimulated gastric acid secretion; assay: In vivo inhibition of histamine-stimulated acid secretion in anesthetized rats; design: species or system rat
Protocol: (§2) 60 SPF SD rats weighing 180-220 g were randomly divided into […]: sham, model, SH-337 (2 mg/kg and 4 mg/kg), vonoprazan (2 mg/kg), males and females are equally divided. Fasting for 24 hours, model and sham groups were treated with deionized water. Drugs and vehicle were given through intragastric administration to rats before anesthesia. 1 h after administration, pylorus was ligated. 5 min later, histamine 2HCl (30 mg/10 mL/kg) was injected subcutaneously. At 3 h after histamine administration, the rats were killed by CO2 asphyxiation. The gastric contents were collected in a 10 mL centrifuge tube after removing their stomachs. Centrifuge at 3000 g for 10 min, and then, determine the total acid output during a 3 h period by 0.1 M NaOH [52, 53]. %Inhibition = (average of modelacid–drugacid)/average of modelacid × 100%.

[5] = system: 2-DG-stimulated gastric acid secretion; assay: In vivo inhibition of 2DG-stimulated acid secretion in anesthetized rats; design: species or system rat; settings: i.g. 2 mg/kg
Protocol: as §2
The 2DG-stimulated acid secretion in anesthetized rats was measured as described as for histamine-stimulated acid secretion, with the exception that 5 min after pylorus ligation, 2-DG (200 mg/10 mL/kg) was injected subcutaneously.

[6] = pH 7.4; ref [35], [38], [39]; cited from earlier work
[7] = cited from earlier work; for Drug concentration, Plasma: 2 mg/kg
[8] = ref [43], cited from earlier work
[9] = AUC0–24, rats, i.g. 2 mg/kg vonoprazan, ref [43]
[10] = rats, 1 h after oral administration of 2.0 mg/kg, ref [40]
[11] = rats, i.g. 2 mg/kg vonoprazan, ref [43]

T1 sequence (P27112 whole entry): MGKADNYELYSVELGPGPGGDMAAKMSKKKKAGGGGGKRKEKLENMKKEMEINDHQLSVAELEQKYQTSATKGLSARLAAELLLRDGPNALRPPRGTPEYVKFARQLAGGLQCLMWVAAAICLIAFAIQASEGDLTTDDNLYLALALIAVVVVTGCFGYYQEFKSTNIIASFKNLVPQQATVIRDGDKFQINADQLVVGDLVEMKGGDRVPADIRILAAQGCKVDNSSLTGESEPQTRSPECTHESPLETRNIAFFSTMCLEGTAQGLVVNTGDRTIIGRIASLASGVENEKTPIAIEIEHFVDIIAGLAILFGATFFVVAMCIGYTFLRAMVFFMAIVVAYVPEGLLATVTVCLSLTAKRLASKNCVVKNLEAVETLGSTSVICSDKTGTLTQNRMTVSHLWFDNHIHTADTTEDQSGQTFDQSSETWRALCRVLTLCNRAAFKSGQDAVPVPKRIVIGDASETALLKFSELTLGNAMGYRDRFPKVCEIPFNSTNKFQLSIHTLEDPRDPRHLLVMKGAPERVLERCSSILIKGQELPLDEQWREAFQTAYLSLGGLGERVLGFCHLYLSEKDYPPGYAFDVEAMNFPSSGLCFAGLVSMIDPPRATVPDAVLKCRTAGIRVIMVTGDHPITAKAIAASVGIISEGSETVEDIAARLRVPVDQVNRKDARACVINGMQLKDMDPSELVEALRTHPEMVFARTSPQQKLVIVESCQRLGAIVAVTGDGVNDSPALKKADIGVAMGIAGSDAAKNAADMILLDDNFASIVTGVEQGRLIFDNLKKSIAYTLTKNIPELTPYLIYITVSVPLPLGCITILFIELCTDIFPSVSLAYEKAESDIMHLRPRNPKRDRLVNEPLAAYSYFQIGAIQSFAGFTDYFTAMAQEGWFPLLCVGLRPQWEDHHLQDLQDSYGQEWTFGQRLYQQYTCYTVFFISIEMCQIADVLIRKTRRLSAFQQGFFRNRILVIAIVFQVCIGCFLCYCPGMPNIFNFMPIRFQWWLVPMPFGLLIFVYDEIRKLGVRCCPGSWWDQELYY
T1 sequence (P18597 whole entry partner): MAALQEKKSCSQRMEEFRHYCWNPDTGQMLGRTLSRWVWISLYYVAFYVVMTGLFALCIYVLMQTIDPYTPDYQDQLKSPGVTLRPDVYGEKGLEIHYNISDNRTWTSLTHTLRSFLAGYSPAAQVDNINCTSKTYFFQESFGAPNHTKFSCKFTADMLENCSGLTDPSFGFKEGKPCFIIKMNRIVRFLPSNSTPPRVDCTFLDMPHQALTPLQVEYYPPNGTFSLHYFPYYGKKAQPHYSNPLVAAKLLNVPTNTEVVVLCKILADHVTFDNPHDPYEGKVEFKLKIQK

SMILES: CNCc1cc(-c2ccccc2F)n(S(=O)(=O)c2cccnc2)c1.O=C(O)/C=C/C(=O)O [Vonoprazan, 1-[5-(2-fluorophenyl)-1-(pyridin-3-ylsulfonyl)-1H-pyrrol-3-yl]-N-methylmethanamine fumarate]
- IC50 [1]: 0.0655 µM
- IC50 (Na+, K+-ATPase): 47.1 µM
- Fold selectivity (Na+, K+-ATPase; Na+, K+-ATPase over H+, K+-ATPase): 719.4 fold
- half-life (Rat microsomal stability): 0.908 h
- half-life [2]: 5.65 h
- C Stomach/CPlasma ([3]; 2 mg/kg): 87.0^e
- Kp at 1 h ([3]; rat, stomach/plasma, read-out: C Stomach/CPlasma): 87
- In vivo efficacy (% inhibition) ([4]; histamine-induced acid secretion in rats, 2 mg/kg, i.g. (Table 2)): 78%
- Total acid output, histamine-stimulated model ([4]; rats, i.g. 2 mg/kg): 0.29 ± 0.43^∗∗ 10^−4 mol
- Inhibition (%), 2-DG-stimulated model [5]: 80%
- Total acid output, 2-DG-stimulated model [5]: 0.62 ± 0.55^∗∗ 10^−4 mol
- log D7.4 [6]: 0.4^a
- C Stomach/CLiver (stomach-liver distribution ratio) [7, 9]: 3.2
- C Stomach/CPlasma (stomach-plasma distribution ratio) [7, 9]: 165.0
- C Stomach/CPlasma (stomach-plasma distribution ratio) ([7]; AUC0–24, rats, i.g. 2 mg/kg vonoprazan, ref [43], listed as vonoprazan): 165
- Drug concentration, Plasma [7, 10]: 11.0^c ng/mL
- Drug concentration, Stomach [7, 10]: 957.0^c ng/mL
- Drug concentration, Plasma ([7]; rats, 1 h after oral administration of 2.0 mg/kg, ref [40], listed as vonoprazan): 11 ng/mL
- AUC0–24, Liver [7, 11]: 4039.0 ng equiv. h/mL or g
- AUC0–24, Plasma [7, 11]: 79.0 ng equiv. h/mL or g
- AUC0–24, Stomach [7, 11]: 13085.0 ng equiv. h/mL or g
- ALT and total cholesterol ([8]; 100 mg/kg dose of vonoprazan, males): high ALT and total cholesterol were observed in males
- no observed adverse effect level (NOAEL) [8]: 30 mg/kg
